Test results: article PMC9953468, “In Silico, In Vitro, and Ex Vivo Biological Activity of Some Novel Mebeverine Precursors” (Biomedicines, 2023)
Several values for one entry are separate records, joined by “and”; a condition that tells them apart may be missing. Identical values can stand only once. Entries after “also recorded” stand apart in the source; their conditions may differ. Counter-ions that a name gives are not always drawn. Like-named read-outs stand apart in the source and are kept apart here. Marks after values point to notes of the source that are not given here.

Assays:
MTT cell viability assay [1] = format: cell-based, human; details: human, ± SD, read-out: In vitro cytotoxicity (IC50)
Experimental: (§1) In order to evaluate the in vitro biocompatibility of the experimental compounds, a series of cell viability assays were performed against human malignant leukemic cell lines (LAMA-84, K-562) as well as normal murine fibroblast cells (CCL-1). All cell lines were purchased from the German Collection of Microorganisms and Cell Cultures (DSMZ GmbH, Braunschweig, Germany). Cell cultures were cultivated in a growth medium RPMI 1640 supplemented with 10% fetal bovine serum (FBS), 5% L-glutamine, and incubated under standard conditions of 37 °C and 5% humidified CO2 atmosphere.
(§2) The experimental design involved a number of cytotoxicity assays that measured cell growth inhibition by the newly synthesized compounds. Cell viability was evaluated using a standard MTT-based colorimetric assay. Exponential-phased cells were harvested and seeded (100 μL/well) in 96-well plates at the appropriate density (3 × 10^5) for the suspension cultures (LAMA-84 and K-562) and 1.5 × 10^5 for the adherent one (CCL-1). Cells were treated and incubated with various concentrations of the experimental compounds in the concentration range of 400-6.25 µM. After exposure time of 72 h, a filter-sterilized MTT substrate solution (5 mg/mL in PBS) was added to each well of the culture plate. A further 1–4 h incubation allowed for the formation of purple insoluble formazan precipitates. The latter were dissolved in isopropyl alcohol solution containing 5% formic acid prior to absorbance measurement at 550 nm using a microplate reader (Labexim LMR-1). Collected absorbance values were blanked against MTT and isopropanol solution and normalized to the mean value of the untreated control (100% cell viability). Semi-logarithmic “dose–response” curves were constructed and the half-inhibitory concentrations of the screened compounds against each tested cell line were calculated. Values of p ≤ 0.05 were considered statistically significant.

MTT cell viability assay [2] = format: cell-based; details: mouse, CCL-1 normal fibroblast cells, CCL-1, normal murine fibroblast cells, read-out: In vitro cytotoxicity (IC50)
Experimental: as §1, §2

[3] = test system: SM preparations from the corpus gastric muscle; experiment: Ex vivo bioelectrical activity of smooth muscle preparations, single sucrose gap method; design: species or system Wistar rats; details: 5 × 10^−5 M; for Amplitude of slow waves, Measured value / Amplitude of spike potentials, Measured value / Number of slow waves, Measured value / Number of spike potentials, Measured value: 10 min, n = 7, mean ± SEM; for effect on bioelectrical activity (slow waves, spike potentials): in words; for Changes in the membrane potential: base activity taken as 100%, ↑ depolarization, ↓ hyperpolarization
Experimental: Adult male Wistar rats weighing 280–300 g were used. Animals were housed in standard laboratory conditions (23 to 25 °C, 50–55% humidity, 12/12 h light/dark cycle), while food and water were provided ad libitum.
Circular SM preparations were dissected from the corpus gastric muscle (26–28 mm long and 0.8–0.9 mm wide; without mucosa). Two or three muscle strips were taken from the rat stomach. The number of SM preparations used for each data point is indicated by n. After dissection, the tissues must prevent loss of viability, so during the dissection, the tissues were systematically moistened with a solution (NaCl:KCl:CaCl2 in ratio 27.2:1.1:1) prepared at 4 °C.
The BEA of SM preparations was investigated by means of the single sucrose gap method with silver non-polarizable freshly chlorinated electrodes. The muscle strips were divided into 3 zones: two electrode sections were flushed with isotonic KCl solution and Krebs solution (pH 7.3), respectively, and separated by a sucrose layer of high electric resistance. Krebs contained the following (in mM): NaCl 120; KCl 5.9; CaCl2 2.5; MgCl2 1.2; NaH2PO4 1.2; NaHCO3 15.4; glucose 11.5. All the ingredients for this solution were of analytical grade and obtained from Merck (Darmstadt, Germany). Deionized water (18.2 mX/cm^2) was used thoroughly. The KCl solution is similar to the Krebs solution but with an equimolar substitution of NaCl with KCl. An isotonic sucrose solution, due to its very high specific resistance (about 10^6 Ω·cm), provides the best possible separation of the sucrose solution from the physiological solution in the “normal” pool, on the one hand, and the solution providing a zero value of the membrane potential in the pool with another recording electrode.
The inflow rate of each solution (Krebs, KCl, and isotonic sucrose solution) was controlled by a needle valve and continuously aerated with a mixture of 95% O2 and 5% CO2, and the temperature was maintained at 37 °C. A potential difference between the two end sections of the gap (control conditions) was achieved by means of silver non-polarizable, freshly chlorinated electrodes and after a 40-min period of adaptation and stabilization was accepted as the initial (control). The Krebs solution was changed several times during the adaptation period. The viability of the SM preparations was periodically tested by treatment with 1 × 10^−6 M ACh.
The membrane potential value was visualized by means of a Linseis recorder (Selb, Germany). A pair of measuring electrodes is located on both sides of the sucrose sections. The pH (pH 7.3; 37 °C) of the Krebs bathing solution was measured before each experiment by pH-meter HI5521 (Hanna Instruments Inc., Woonsocket, RI, USA). […]
The new substances were dissolved initially in dimethyl sulphoxide (DMSO) to prepare a 5 × 10^−2 M stock solution. Further dilutions were made in distilled deionized water and were applied by adding aliquots of their concentrated solutions to the tissue bath.

5-HT3 receptor = experiment: Immunohistochemical analysis of 5-HT3 expression in gastric SM strips; design: species or system Wistar rats; key to 5-HT3 expression, 5-HT / 5-HT3 expression, Response to Compound: −: absent; +: low; ++: moderate; +++: strong; details: for 5-HT3 expression, Response to Compound: SM preparations incubated with the compound; for 5-HT3 expression in SM preparations: immunohistochemical staining after 1 h incubation, in words
Experimental: […] Then, each SM strip was fixed in 10% neutral buffer formalin for 24–48 h and submitted for standard processing with hematoxylin and eosin staining.
The SM fragments from a rat’s gastric wall were fixed in a 10% neutral formalin solution and embedded in paraffin. Paraffin sections of 5 μm thickness were subjected to hematoxylin and eosin (H-E) staining for histochemical analysis.
Sections of the SM fragments from the wall of a rat’s stomach with a thickness of 5 µm were deparaffinized, then subjected to antigenic detection of the epitopes with citrate buffer, and an endogenous peroxidase blockade was made with hydrogen […] 3%, a kit was used to block the endogenous biotin, and a reagent was used to block non-specific binding (Superblock, Scy Tek, Santa Cruz Biotech. Inc. Heidelberg, Germany) follows incubate for 24 h (at 4 °C) with monoclonal mouse anti-5-HT3, next incubated with a secondary antibody: biotinylated anti-rabbit for 10 min at room temperature. The reaction was visualized with 3,3′-diaminobenzidine tetrachloride and counterstained with Mayer’s hematoxylin.
A quantitative and statistical analysis of immunohistochemical reaction using the Olympus DP-Soft image system (version 4.1 for Windows) was carried out on a Microphot-SA (Nikon, Japan) microscope equipped with a Camedia-5050 Z digital camera (Olympus, Japan). The analysis was performed on sections from the SM strips from the stomach of Wistar rats (n = 6 for each group). Five sections of the SM strips were measured, and the percentage of cells expressing 5-HT3 in the circular and longitudinal layer of SM cells, as well as in the myenteric plexus of the stomach, was determined. Each antibody was analyzed for five fields, in each of them the average number of cells with positive unit area response at ×200 magnification.

[4] = test system: Eighteen tested microorganisms (Gram-positive bacteria, Gram-negative bacteria, yeasts, fungi); experiment: Antimicrobial activity, agar well diffusion method, whole panel; format: cell-based; details: whole panel of tested microorganisms, in words
From the text: Eighteen tested microorganisms including five Gram-positive bacteria (Bacillus subtilis ATCC 6633, Bacillus amyloliquefaciens 4BCL-YT, Staphylococcus aureus ATCC 25923, Listeria monocytogenes NBIMCC 8632, Enterococcus faecalis ATCC 19433), five Gram-negative bacteria (Salmonella enteritidis ATCC 13076, Klebsiella sp.—clinical isolate, Escherichia coli ATCC 25922, Proteus vulgaris ATCC 6380, Pseudomonas aeruginosa ATCC 9027), two yeasts (Candida albicans NBIMCC 74, Saccharomyces cerevisiae ATCC 9763) and six fungi (Aspergillus niger ATCC 1015, Aspergillus flavus, Penicillium sp., Rhizopus sp., Mucor sp.—plant isolates, Fusarium moniliforme ATCC 38932) from the collection of the Department of Microbiology at the University of Food Technologies—Plovdiv, Bulgaria, were selected for the antimicrobial activity test.
The antimicrobial activity of the samples was determined by the agar well diffusion method. The tested bacteria B. subtilis and B. amyloliquefaciens were cultured on LBG agar at 30 °C. The test bacteria S. aureus, L. monocytogenes, E. faecalis, S. enteritidis, Klebsiella sp., E. coli, P. vulgaris and P. aeruginosa were cultured on LBG agar at 37 °C for 24 h. The yeast C. albicans was cultured on MEA at 37 °C, while S. cerevisiae was cultured on MEA at 30 °C for 24 h. The fungi A. niger, A. flavus, Penicillium sp., Rhizopus sp., Mucor sp., and F. moniliforme were grown on MEA at 30 °C for 7 days or until sporulation.
The inocula of the tested bacteria/yeasts were prepared by homogenization of a small amount of biomass in 5 mL of sterile 0.5% NaCl. […] The number of viable cells and fungal spores was determined using a bacterial counting chamber Thoma (Poly-Optik, GmbH, Bad Blankenburg, Germany). […] Next, the inoculated media were transferred in a quantity of 18 mL in sterile Petri plates (d = 90 mm) (Gosselin™, Hazebrouck, France) and allowed to harden. […]
The antimicrobial activity was determined by measuring the diameter of the inhibition zones around the wells on the 24th and 48th h of incubation. […]

K-562 = experiment: MTT cell viability assay; format: cell-based, human; details: K-562, Blast phase CML (bcr-abl+), 72 h, ± SD
Experimental: as §1, §2

LAMA-84 = experiment: MTT cell viability assay; format: cell-based, human; details: LAMA-84, CML in blast crisis (bcr-abl+), 72 h, ± SD
Experimental: as §1, §2

[5] = K-562 cells (blast phase chronic myeloid leukemia), K-562, Blast phase CML (bcr-abl+)
[6] = LAMA-84, CML in blast crisis (bcr-abl+)

Row | Structure (SMILES) | 5-HT3 expression, Response to Compound (5-HT3 receptor) | 5-HT3 expression, 5-HT (5-HT3 receptor; SM preparations incubated with 5-HT, one per compound series) | IC50 at 72 h (MTT cell viability assay [1]; [5]) [µM] | IC50 at 72 h (MTT cell viability assay [1]; [6]) [µM] | IC50 at 72 h (MTT cell viability assay [2]) [µM] | Amplitude of slow waves, Measured value [3] [mV] | Amplitude of spike potentials, Measured value [3] | Number of slow waves, Measured value [3] [min⁻¹] | Number of spike potentials, Measured value [3] | effect on bioelectrical activity (slow waves, spike potentials) [3] | Changes in the membrane potential [3] [%] | 5-HT3 expression in SM preparations (5-HT3 receptor) | antimicrobial activity [4] | In vitro cytotoxicity (IC50) (K-562) | In vitro cytotoxicity (IC50) (LAMA-84)
1 | CCN(CCCCOC(=O)c1ccc(OC)c(OC)c1)C(C)Cc1ccc(OC)cc1 (centres unmarked) [Mebeverine hydrochloride, mebeverine hydrochloride, reference compound] |  |  | 85.4 ± 8.3 | 72 ± 6.2 | > 300 |  |  |  |  |  |  | weak 5-HT3 expression observed | did not show any antimicrobial activity | just under the hundred-micromolar range | just under the hundred-micromolar range
2 | NCCc1c[nH]c2ccc(O)cc12 [Compound 5-HT, 5-hydroxytryptamine, reference compound] |  | ++ |  |  |  |  |  |  |  |  |  | higher number of 5-HT3R positive cells per section and 5-HT3 expression observed in the myenteric plexus |  |  | 

Second part, led by results:

Row | 5-HT3 expression, Response to Compound (5-HT3 receptor) | 5-HT3 expression, 5-HT (5-HT3 receptor; SM preparations incubated with 5-HT, one per compound series) | Structure (SMILES) | IC50 at 72 h (MTT cell viability assay [1]; [5]) [µM] | IC50 at 72 h (MTT cell viability assay [1]; [6]) [µM] | IC50 at 72 h (MTT cell viability assay [2]) [µM] | Amplitude of slow waves, Measured value [3] [mV] | Amplitude of spike potentials, Measured value [3] | Number of slow waves, Measured value [3] [min⁻¹] | Number of spike potentials, Measured value [3] | effect on bioelectrical activity (slow waves, spike potentials) [3] | Changes in the membrane potential [3] [%] | 5-HT3 expression in SM preparations (5-HT3 receptor) | antimicrobial activity [4] | In vitro cytotoxicity (IC50) (K-562) | In vitro cytotoxicity (IC50) (LAMA-84)
3 | − |  | CC(C)C(Cc1ccccc1)NC(=O)c1ccccc1 (centres unmarked) [Compound 4b, N-(3-methyl-1-phenylbutan-2-yl)benzamide] | 329 ± 20.4 | 265 ± 20.2 | > 300 | 5.09 ± 0.10 | 1.40 ± 0.12 mV | 4.50 ± 0.49 | 22.28 ± 0.18 min⁻¹ | do not affect the BEA | 0 | no modulation on the 5-HT3R expression; also recorded: no 5-HT3 expression observed |  |  | 
4 | + |  | CC(C)C(Cc1ccccc1)NC(=O)Cc1ccccc1 (centres unmarked) [Compound 4d, N-(3-methyl-1-phenylbutan-2-yl)-2-phenylacetamide] | 244 ± 18.5 | 328 ± 15.9 | > 300 | 4.97 ± 0.29 | 0 * mV | 4.82 ± 0.24 | 0 * min^−1 |  | 0 | very weak non-specific effect; also recorded: weak 5-HT3 expression observed |  |  | 
5 | − |  | CC(C)C(Cc1ccccc1)NC(=O)c1ccccc1Cl (centres unmarked) [Compound 4c, 2-Chloro-N-(3-methyl-1-phenylbutan-2-yl)benzamide] | 367 ± 8.4 | 266 ± 16.8 | > 300 | 5.34 ± 0.20 | 1.56 ± 0.17 mV | 4.42 ± 0.41 | 26.16 ± 0.26 min⁻¹ | do not affect the BEA | 0 | no modulation on the 5-HT3R expression; also recorded: no 5-HT3 expression observed |  |  | 
